pKi: −log10 of the molar value. Read-outs that look alike come from different tables or passages of the source.
Biological target: T1, C5a receptor (Homo sapiens, UniProt P21730)
T1 construct: endogenous in cells; host or cells: U937 cells differentiated with 1 mM dibutyryl cAMP
T1 sequence (P21730 1-350): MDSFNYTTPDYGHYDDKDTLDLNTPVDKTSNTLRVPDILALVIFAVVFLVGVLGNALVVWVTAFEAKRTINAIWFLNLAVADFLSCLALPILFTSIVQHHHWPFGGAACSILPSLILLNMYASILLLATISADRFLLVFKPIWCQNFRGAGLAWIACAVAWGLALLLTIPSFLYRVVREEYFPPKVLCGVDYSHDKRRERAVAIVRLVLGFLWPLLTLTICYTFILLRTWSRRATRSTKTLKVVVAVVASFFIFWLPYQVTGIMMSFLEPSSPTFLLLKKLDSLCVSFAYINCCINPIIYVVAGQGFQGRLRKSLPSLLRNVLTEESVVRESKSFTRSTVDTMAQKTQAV
Experiment: standard assay of C5a receptor mediated calcium mobilization
Assay type: cell-based
Details: asterisk = tested in C5a receptor mediated calcium mobilization assay, read-out: Ca2+ Mob.
Experimental: U937 cells are grown in differentiation media (1 mM dibutyrl cAMP in RPMI 1640 medium containing 10% fetal bovine serum) for 48 hrs at 37° C. then reseeded onto 96-well plates suitable for use in a FLIPR™ Plate Reader (Molecular Devices Corp., Sunnyvale Calif.). Cells are grown an additional 24 hours (to 70-90% confluence) before the assay. The cells are then washed once with Krebs Ringer solution. FLUO-3 calcium sensitive dye (Molecular Probes, Inc. Eugene, Oreg.) is added to 10 μg/mL and incubated with the cells at room temperature for 1 to 2 hours. The 96 well plates are then washed to remove excess dye. Fluorescence responses, measured by excitation at 480 nm and emission at 530 nm, are monitored upon the addition of human C5a to the cells to a final concentration of 0.01-30.0 nM, using the FLIPR™ device (Molecular Devices).
The calcium mobilization assay described above may be readily adapted for identifying test compounds that have agonist or antagonist activity at the human C5a receptor.
For example, in order to identify antagonist compounds, differentiated U937 cells are washed and incubated with Fluo-3 dye as described above. One hour prior to measuring the fluorescence signal, a subset of the cells is incubated with 1 μM of at least one compound to be tested. The fluorescence response upon the subsequent addition of 0.3 nM (final concentration) human recombinant C5a is monitored using the FLIPR™ plate reader. Antagonist compounds elicit at least a 2-fold decrease in the fluorescence response relative to that measured in the presence of human C5a alone. Preferred antagonist compounds elicit at least a 5-fold, preferably at least a 10-fold, and more preferably at least a 20-fold decrease in the fluorescence response relative to that measured in the presence of human C5a alone.

pKi (Table I) | pKi (Table III) | Compound
> 6.00 |  | Cc1ccc(-c2ccccc2)c(C(=O)N(Cc2ccccc2)C2Cc3ccccc3C2)c1 [compound 116, N-benzyl-N-(indan-2-yl)-4-methyl-1,1′-biphenyl-2-carboxamide]
> 6.00 |  | COc1ccc(CN(C(=O)c2c(C)cccc2-c2ccccc2)C2Cc3ccccc3C2)cc1 [compound 128, N-(indan-2-yl)-N-(4-methoxybenzyl)-3-methyl-1,1′-biphenyl-2-carboxamide]
> 6.00 |  | COc1ccc(-c2ccccc2)c(C(=O)N(Cc2ccccc2F)C2Cc3ccccc3C2)c1 [compound 108, N-(indan-2-yl)-N-(2-fluorobenzyl)-4-methoxy-1,1′-biphenyl-2-carboxamide]
> 6.00 |  | Cc1ccc(-c2ccccc2C(=O)N(Cc2ccccc2)Cc2ccc(O)cc2Cl)s1 [compound 149, N-benzyl-N-(2-chloro-4-hydroxybenzyl)-2-(5-methylthien-2-yl)benzamide]
> 6.00 |  | O=C(c1cc(Cl)ccc1-c1ccccc1)N(Cc1ccccc1)Cc1cccc2ccccc12 [compound 146, N-benzyl-4-chloro-N-(1-naphthylmethyl)-1,1′-biphenyl-2-carboxamide]
> 6.00 |  | Cc1cccc(-c2ccccc2)c1C(=O)N(Cc1ccc(F)c(F)c1)C1Cc2ccccc2C1 [compound 126, N-(3,4-difluorobenzyl)-N-(indan-2-yl)-3-methyl-1,1′-biphenyl-2-carboxamide]
> 6.00 |  | Cc1ccc(-c2ccccc2C(=O)N(Cc2ccccc2F)C2Cc3ccccc3C2)cc1 [compound 94, N-(indan-2-yl)-N-(2-fluorobenzyl)-4′-methyl-1,1′-biphenyl-2-carboxamide]
> 6.00 |  | Cc1ccc(CN(C(=O)c2ccccc2-c2ccccc2F)C2Cc3ccccc3C2)cc1 [compound 90, N-(indan-2-yl)-2′-fluoro-N-(4-methylbenzyl)-1,1′-biphenyl-2-carboxamide]
> 6.00 |  | Cc1ccccc1CN(C(=O)c1c(C)cccc1-c1ccccc1)C1Cc2ccccc2C1 [compound 120, N-(indan-2-yl)-3-methyl-N-(2-methylbenzyl)-1,1′-biphenyl-2-carboxamide]
> 6.00 |  | O=C(c1ccccc1-c1ccccc1F)N(Cc1cccc(F)c1)C1Cc2ccccc2C1 [compound 96, N-(indan-2-yl)-2′-fluoro-N-(3-fluorobenzyl)-1,1′-biphenyl-′-carboxamide]
> 6.00 |  | COc1ccc(-c2ccccc2)c(C(=O)N(Cc2ccccc2C)C2Cc3ccccc3C2)c1 [compound 105, N-(indan-2-yl)-4-methoxy-N-(2-methylbenzyl)-1,1′-biphenyl-2-carboxamide]
> 6.00 |  | Cc1cccc(-c2ccccc2)c1C(=O)N(CCc1ccccc1)C1Cc2ccccc2C1 [compound 130, N-(indan-2-yl)-3-methyl-N-(2-phenylethyl)-1,1′-biphenyl-2-carboxamide]
> 6.00 |  | COc1cccc(CN(C(=O)c2c(OC)cccc2-c2ccccc2)C2Cc3ccccc3C2)c1 [compound 101, N-(indan-2-yl)-3-methoxy-N-(3-methoxybenzyl)-1,1′-biphenyl-2-carboxamide]
 | > 6.00 | COc1ccc2ccccc2c1C(=O)N(Cc1ccc2c(c1)OCO2)C1Cc2ccccc2C1 [compound 228, 2-Methoxy-naphthalene-1-carboxylic acidbenzo[1,3]dioxol-5-ylmethyl-indan-2-yl-amide]
> 6.00 |  | O=C(c1cc(Cl)ccc1-c1ccccc1)N(CCc1ccccc1)C1Cc2ccccc2C1 [compound 141, 4-chloro-N-(indan-2-yl)-N-(2-phenylethyl)-1,1′-biphenyl-2-carboxamide]
 | > 6.00 | COc1ccc2ccccc2c1C(=O)N(Cc1ccccc1)Cc1cc(C)c(O)c(C)c1 [compound 217, N-benzyl-N-(4-hydroxy-3,5-dimethylbenzyl)-2-methoxy-1-naphthamide]
> 6.00 |  | COc1cccc(CN(C(=O)c2c(C)cccc2-c2ccccc2)C2Cc3ccccc3C2)c1 [compound 127, N-(indan-2-yl)-N-(3-methoxybenzyl)-3-methyl-1,1′-biphenyl-2-carboxamide]
> 6.00 |  | O=C(c1cc(Cl)ccc1-c1ccsc1)N(Cc1ccccc1)C1Cc2ccccc2C1 [compound 119, N-benzyl-5-chloro-N-(indan-2-yl)-2-thien-3-ylbenzamide]

Continued, compound first:

Compound | pKi (Table I) | pKi (Table III)
Cc1cccc(-c2ccccc2C(=O)N(Cc2ccccc2)Cc2ccccc2)c1 [compound 54, N,N-dibenzyl-3′-methyl-1,1′-biphenyl-2-carboxamide] | > 6.00 | 
O=C(c1ccccc1-c1cc(Cl)cc(Cl)c1)N(Cc1ccccc1)Cc1ccccc1 [compound 56, N,N-dibenzyl-3′,5′-dichloro-1,1′-biphenyl-2-carboxamide] | > 6.00 | 
COc1ccccc1-c1ccccc1C(=O)N(Cc1ccccc1)Cc1ccccc1 [compound 43, N,N-dibenzyl-2′-methoxy-1,1′-biphenyl-2-carboxamide] | > 6.00 | 
O=C(c1ccccc1-c1ccccc1)N(Cc1ccc(F)c(F)c1)C1Cc2ccccc2C1 [compound 80, N-(3,4-difluorobenzyl)-N-(indan-2-yl)-1,1′-biphenyl-2-carboxamide] | > 6.00 | 
Cc1ccc(CN(C(=O)c2ccccc2-c2ccc(C)cc2)C2Cc3ccccc3C2)cc1 [compound 88, N-(indan-2-yl)-4′-methyl-N-(4-methylbenzyl)-1,1′-biphenyl-2-carboxamide] | > 6.00 | 
Cc1csc(-c2ccccc2C(=O)N(Cc2ccccc2)C2Cc3ccccc3C2)c1 [compound 59, N-benzyl-N-(indan-2-yl)-2-(4-methylthien-2-yl)benzamide] | > 6.00 | 
Cc1cccc(CN(C(=O)c2ccccc2-c2ccccc2)C2Cc3ccccc3C2)c1 [compound 74, N-(indan-2-yl)-N-(3-methylbenzyl)-1,1′-biphenyl-2-carboxamide] | > 6.00 | 
O=C(c1ccccc1-c1ccccc1)N(Cc1cccc(F)c1)C1Cc2ccccc2C1 [compound 77, N-(indan-2-yl)-N-(3-fluorobenzyl)-1,1′-biphenyl-′-carboxamide] | > 6.00 | 
O=C(c1ccccc1-c1ccccc1)N(Cc1ccc2c(c1)OCO2)C1Cc2ccccc2C1 [compound 79, N-(1,3-benzodioxol-5-ylmethyl)-N-(indan-2-yl)-1,1′-biphenyl-2-carboxamide] | > 6.00 | 
Cc1ccc2c(c1)CC(N(Cc1ccccc1)C(=O)c1ccccc1-c1ccccc1)C2 (stereo not drawn) [compound 72, N-benzyl-N-(5-methyl-indan-2-yl)-1,1′-biphenyl-2-carboxamide] | > 6.00 | 
O=C(c1ccccc1-c1cccs1)N(Cc1ccccc1)C1Cc2ccccc2C1 [compound 63, N-benzyl-N-(indan-2-yl)-2-thien-2-ylbenzamide] | > 6.00 | 
COc1cccc(-c2ccccc2)c1C(=O)N(Cc1ccccc1)C1Cc2ccccc2C1 [compound 67, N-benzyl-N-(indan-2-yl)-3-methoxy-1,1′-biphenyl-2-carboxamide] | > 6.00 | 
Cc1ccc(-c2ccccc2C(=O)N(Cc2ccccc2)Cc2ccccc2)cc1C [compound 40, N,N-dibenzyl-3′,4′-dimethyl-1,1′-biphenyl-2-carboxamide] | > 6.00 | 
COc1ccccc1CN(C(=O)c1ccccc1-c1ccsc1)C1Cc2ccccc2C1 [compound 81, N-(indan-2-yl)-N-(2-methoxybenzyl)-2-thien-3-ylbenzamide] | > 6.00 | 
O=C(c1ccccc1-c1ccsc1)N(Cc1ccc2ccccc2c1)C1Cc2ccccc2C1 [compound 86, N-(indan-2-yl)-N-(2-naphthylmethyl)-2-thien-3-ylbenzamide] | > 6.00 | 

From patent US7291621B2, “Substituted biaryl amides C5a receptor modulators” (Neurogen Corporation, priority 2002, dated 2007)
